For data set [1], the system named is Sorbitol accumulation in sciatic nerve. The experiment in a line: Inhibition of sorbitol accumulation in the sciatic nerve of streptozotocin-diabetic rats. Type of data set: in vivo, Sprague-Dawley rats. The conditions noted are these: 25 mg/kg orally, twice a day for two days; relative to the control. Here is the method:
(§1) Sprague-Dawley rats (male, 5-7 week old, five rats/group) were fasted for 18 hours. The rats were made diabetic by an intravenous injection of 70 mg/kg of streptozotocin (Produced by Cal Biochem) at the site of the tail under ether anesthesia. After the administration of streptozotocin, these rats were administered orally with 25 mg/kg of the test compounds (5% suspension of gum-arabica) for two days twice a day (at 9.00 a.m. and at 4.00 p.m.). During this period, these rats were allowed free access to CE-2 feedstuff (Produced by Clea Japan) and water while determining blood-sugar level of each animal. On the morning of the third day, these rats were decapitated and bled, then the lens and sciatic nerve were quickly excised. The respective contents of sorbitol in the lens and sciatic nerve were determined by the enzymatic assay method described by R. S. Clements et al., in Science, 166, p. 1007 (1969) applied to the extracts of these organs obtained by the method described by M. J. Peterson et al., in Metabolism, 28, 456 (1979).
(§2) The results are shown in the Table below as % inhibition relative to the control. Incidentally, no significant difference in blood-sugar level was observed between the group of test animals to which the test compounds were administered and the control group of the test animals to which no test compounds were administered.

In data set [2] the test system is mice. Put plainly: Oral acute toxicity in mice. It counts as in vivo.
Data set [3] addresses T1, partially purified aldose reductase preparation from human placenta (Homo sapiens, UniProt P15121).
T1 construct: partially purified aldose reductase preparation from human placenta; from tissue; host or cells: human placenta
The experiment in a line: Aldose reductase inhibitory action. Type of data set: biochemical. The conditions noted are these: 10^-6 M; human placenta enzyme. How it is done: Aldose reductase inhibitory action was assayed in accordance with the method disclosed by S. Haymen et al. in Journal of Biological Chemistry, Vol. 240, p. 877 (1965) and that disclosed by Jin H. Kinoshita et al. in Metabolism, Vol. 28, Nr. 4, Suppl. 1, 462 (1979). The enzyme used in the assay was a partially purified aldose reductase preparation from human placenta. The results for the respective compounds were expressed as % inhibition at the concentration of 10^-6 mole and are shown in Table 1.

The subject of data set [4] is Sorbitol accumulation in lens. The experiment in a line: Inhibition of sorbitol accumulation in the lens of streptozotocin-diabetic rats. Type of data set: in vivo, Sprague-Dawley rats. The settings on record: 25 mg/kg orally, twice a day for two days; relative to the control. Here is the method: as §1, §2

Each structure is given as a SMILES string.

The inhibition is the relative decrease from the control value, in per cent. Read a high inhibition as strong suppression. Turning to `O=C1NC(=O)C(c2ccc3c(c2)CCCC3)S1` (centres unmarked) [Example 2, 5-(5,6,7,8-tetrahydro-2-naphthyl)thiazolidine-2,4-dione], the “Inhibition of Sorbitol Accumulation (%), Sciatic Nerve” value (“Inhibition … (%), Sciatic Nerve” for short) in data set [1] was found to be 79%. In addition, the “oral LD50” value in data set [2] is “no less than 100 mg”. This compound showed an inhibition at 1 µM in data set [3] of 36%. The “Inhibition of Sorbitol Accumulation (%), Lens” value (from here on “Inhibition … (%), Lens”) in data set [4] was 73%.

Take `O=C1NC(=O)C(c2ccc3c(c2)CCCCC3)S1` (centres unmarked) [Example 1, 5-(6,7,8,9-tetrahydro-5H-benzocycloheptadien-2-yl)thiazolidine-2,4-dione]: the “Inhibition … (%), Sciatic Nerve” value in data set [1] is 83%. The same compound had an inhibition at 1 µM in data set [3] of 34%. Besides, in data set [4], the “Inhibition … (%), Lens” value worked out at 65%.

With `O=C1NC(=O)C(c2ccc3c(c2)CCC3)S1` (centres unmarked) [Example 4, 5-(5-indanyl)thiazolidine-2,4-dione], the “Inhibition … (%), Sciatic Nerve” value in data set [1] was 66%. Also, the inhibition at 1 µM in data set [3] came out at 30%. The “Inhibition … (%), Lens” value in data set [4] is on record as 62%.

Regarding `Cc1ccc(C2SC(=O)NC2=O)cc1C` (centres unmarked) [reference compound], in data set [1], the “Inhibition … (%), Sciatic Nerve” value amounted to 5%. Moreover, the “Inhibition … (%), Lens” value in data set [4] is on record as 18%.

Take `COc1ccc(C2SC(=O)NC2=O)cc1OC` (centres unmarked) [reference compound]: the “Inhibition … (%), Sciatic Nerve” value in data set [1] is given as -2%. For the same compound, the “Inhibition … (%), Lens” value in data set [4] came out at 62%.
